1 compound from patent publication US5763430A, “Method of treating a viral infection by administering a steroid compound” (priority 1995, dated 1998) can be followed below.

Molecules are shown by their SMILES. Entries after “also recorded” stand apart in the source; their conditions may differ.

The subject of data set [1] is chick chorioallantoic membrane. Nature of the data set: chorioallantoic membrane (CAM) model, inhibition of capillary growth. The format is in vivo. The following applies: 3-Day embryo. The source says:
The growing capillaries within the chorioallantoic membrane model (CAM model) have been used as a system in which to evaluate the effect of agents on their potential to inhibit new vessel growth. Neovascularization occurs most aggressively over the first week of embryonic development. Thereafter capillary growth is characterized by principally "elongation" rather than "de novo" formation.
In the standard assay, agents are applied locally to a region of the embryo over which neovascularization will occur. Agents are assessed by their ability to inhibit this process, as evaluated by visual examination about 7 days after application. […] The assay utilized is described in detail in Auerbach et al., Pharm. Ther. 51, 1991, 1-11.

The subject of data set [2] is chick embryo vitelline capillaries. Nature of the data set: chick embryo vitelline capillary regression assay. The format is in vivo. The procedure, abridged: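 Compounds were applied to 3-day chick embryos in 0.1 ml of 15% Ficol 400 and PBS. Regression of vitelline capillaries was scored visually 60 minutes later.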

Take `CC(C)[C@@H](CC[C@@H](C)[C@H]1CC[C@H]2[C@@H]3[C@H](O)C[C@H]4C[C@@H](NCCCNCCCCN)CC[C@]4(C)[C@H]3CC[C@]12C)OS(=O)(=O)O` [Compound 1256]: the Percentage positive is 28 Percentage in data set [1] (0.65 μg, Assay 1); 18 Percentage in data set [1] (1.25 μg, Assay 1); 18 Percentage in data set [1] (1.25 μg, Assay 2); 18 Percentage in data set [1] (1.25 μg, Mean); 35 Percentage in data set [1] (2.5 μg, Assay 1); 18 Percentage in data set [1] (2.5 μg, Assay 2). For the same compound, the Percentage positive is given as 27 Percentage in data set [1] (2.5 μg, Mean); 91 Percentage in data set [1] (5.0 μg, Assay 1); 57 Percentage in data set [1] (5.0 μg, Assay 2); 74 Percentage in data set [1] (5.0 μg, Mean); 52 Percentage in data set [1] (20 μg, Assay 1, some vascular irritation); 58 Percentage in data set [1] (20 μg, Assay 2, some vascular irritation). Also, the Percentage positive in data set [1] (20 μg, Mean) was found to be 55 Percentage; in data set [1] (40 μg, Assay 1, some vascular irritation), 50 Percentage; in data set [1] (40 μg, Assay 2, some vascular irritation), 13 Percentage; in data set [1] (40 μg, Mean) it was 32 Percentage. For the same compound, the vascular irritation result in data set [1] (20 and 40 μg) is “Some vascular irritation noted”. Also, the “effect on vitelline capillaries” value in data set [2] (3- to 5-day chick embryos) was “disrupt vitelline capillaries”. Besides, in data set [2] (Table 5), the relative activity entry is given as “especially active”. For the same compound, in data set [2] (constriction between capillary and secondary vessels), the lag period result is recorded as “around 15 minutes”. Further, in data set [2] (in vivo, listed as Squalamine), the hemorrhage / hemolysis entry is “No hemorrhage was seen; also recorded: absence of hemolysis”.
